Data on 9 compounds can be found in ChEMBL document CHEMBL4038285, “Synthesis, molecular docking, antimycobacterial and antimicrobial evaluation of new pyrrolo[3,2-c]pyridine Mannich bases” (Eur J Med Chem, 2017).

Values after ≈ are worked out from the molar mass of the structure shown. Active and inactive are the calls of the source. No cut-off for these calls is given here.

Data set [1] relates to Pseudomonas aeruginosa. Description: Antibacterial activity against Pseudomonas aeruginosa MTCC 4727 assessed as diameter of inhibition zone measured after 20 hrs by agar well diffusion method. The class given is functional. (A growth-free zone around the sample is the usual read-out of agar diffusion tests.)
Data set [2] relates to Scopulariopsis sp. Description: Antifungal activity against Scopulariopsis sp. MTCC 3553 assessed as diameter of inhibition zone after 4 days by agar well diffusion method. The class given is functional.
Data set [3] has as its system Escherichia coli. Briefly: Antibacterial activity against Escherichia coli NCIM 2931 assessed as diameter of inhibition zone measured after 20 hrs by agar well diffusion method. The class given is functional.
Data set [4] has as its system Clostridium sporogenes. Briefly: Antibacterial activity against Clostridium sporogenes NICM 2559 after 24 hrs by broth microdilution method. The data set is classed as functional. The conditions noted are these: NICM 2559, 24 h. In general terms: In broth dilution the organism is exposed to a series of concentrations in liquid medium.
Data set [5] relates to Bacillus flexus. Briefly: Antibacterial activity against Bacillus flexus MTCC 2909 assessed as diameter of inhibition zone measured after 20 hrs by agar well diffusion method. The class given is functional, Priestia flexa.
Data set [6] relates to Streptococcus mutans. Briefly: Antibacterial activity against Streptococcus mutans MTCC 890 assessed as diameter of inhibition zone measured after 20 hrs by agar well diffusion method. The data set is classed as functional.
Data set [7] deals with Bacillus flexus. Briefly: Antibacterial activity against Bacillus flexus MTCC 2909 after 24 hrs by broth microdilution method. The conditions noted are these: Priestia flexa, MTCC 2909, 24 h. The class given is functional.
Data set [8] concerns Aspergillus terreus. Description: Antifungal activity against Aspergillus terreus MTCC 1782 assessed as diameter of inhibition zone after 4 days by agar well diffusion method. The class given is functional.
The test system of data set [9] is Streptococcus mutans. Briefly: Antibacterial activity against Streptococcus mutans MTCC 890 after 24 hrs by broth microdilution method. The class given is functional. Particulars: MTCC 890, 24 h.
Data set [10] deals with Clostridium sporogenes. Briefly: Antibacterial activity against Clostridium sporogenes NICM 2559 assessed as diameter of inhibition zone measured after 20 hrs by agar well diffusion method. The class given is functional.
The test system of data set [11] is Staphylococcus aureus. Description: Antibacterial activity against Staphylococcus aureus NCIM 5345 assessed as diameter of inhibition zone measured after 20 hrs by agar well diffusion method. The data set is classed as functional.
Data set [12] has as its system Staphylococcus aureus. Description: Antibacterial activity against Staphylococcus aureus NCIM 5345 after 24 hrs by broth microdilution method. The data set is classed as functional. Particulars: NCIM 5345, 24 h.
Data set [13] deals with Pseudomonas sp. Briefly: Antibacterial activity against Pseudomonas sp. NCIM 2872 assessed as diameter of inhibition zone measured after 20 hrs by agar well diffusion method. The data set is classed as functional.
Data set [14] has as its system Klebsiella pneumoniae. Briefly: Antibacterial activity against Klebsiella pneumoniae PTCC 1053 assessed as diameter of inhibition zone measured after 20 hrs by agar well diffusion method. The data set is classed as functional.
Data set [15] deals with Mycobacterium tuberculosis. Briefly: Antimycobacterial activity against Mycobacterium tuberculosis H37Rv ATCC 27294 after 7 days by microplate alamar blue assay. The class given is functional. Particulars: H37Rv ATCC 27294, 168 h. (In general: Alamar Blue is a resazurin reagent that responds to reducing activity.)
Data set [16] in a line: Selectivity index, ratio of IC50 for human HEK293T cells to MIC for Mycobacterium tuberculosis H37Rv ATCC 27294. The data set is classed as toxicity. Particulars: read-out: Selectivity Index.
For data set [17], the system named is HEK-293T. Briefly: Growth inhibition of human HEK293T cells after 72 hrs by MTT assay. The class given is cell-based.
A short description of data set [18]: Growth inhibition of human HEK293T cells at 50 ug/ml after 72 hrs by MTT assay relative to control. The conditions noted are these: read-out: GI. The class given is cell-based, HEK-293T.

A word on the MIC: it is the lowest concentration that inhibits growth of the organism. A low value points to a more susceptible organism. Take `CN[C@@H]1[C@H](O[C@H]2[C@H](O[C@H]3[C@H](O)[C@@H](O)[C@H](N=C(N)N)[C@@H](O)[C@@H]3N=C(N)N)O[C@@H](C)[C@]2(O)C=O)O[C@@H](CO)[C@H](O)[C@H]1O` [STREPTOMYCIN]: the “diameter of the inhibition zone (DIZ)” value in data set [1], in data set [3], in data set [5], in data set [6], in [10] and in [11] was 32 mm in each case. The “diameter of the inhibition zone (DIZ)” value in data set [13] and in [14] was 32 mm each time. The “diameter of the inhibition zone (DIZ)” value in data set [2] and in data set [8] was “inactive” in each case. In addition, the minimal inhibitory concentration (MIC) was 1 µg/mL (≈ 1.72 µM) in [4], 1.5 µg/mL (≈ 2.58 µM) in data set [7], 0.5 µg/mL (≈ 0.86 µM) in data set [9] and 2 µg/mL (≈ 3.44 µM) in [12].

For the compound `NNC(=O)c1ccncc1` [ISONIAZID], the MIC in data set [15] came out at 0.36 µg/mL (≈ 2.63 µM).

Turning to NYSTATIN, the “diameter of the inhibition zone (DIZ)” value in data set [1], in data set [3], in [5] (Priestia flexa), in data set [6], in [10] and in [11] was “inactive” in each case. The “diameter of the inhibition zone (DIZ)” value in data set [13] and in data set [14] was “inactive” each time. The inhibition zone (IZ) in data set [2] and in [8] was 32 mm in each case.

For the compound `Clc1nccc2[nH]c(-c3ccccc3)c(CN3CCOCC3)c12`, the “diameter of the inhibition zone (DIZ)” value in [1], in [2], in data set [3], in data set [8], in [13] and in data set [14] was “inactive” throughout. Moreover, the MIC was > 50 µg/mL in [4]; > 50 µg/mL in data set [7]; > 25 µg/mL in [15]; > 50 µg/mL in data set [9]; > 50 µg/mL in data set [12]. Besides, the “diameter of the inhibition zone (DIZ)” value in data set [5], in data set [6], in data set [10] and in data set [11] was 10 mm in each case.

`CO[C@H]1/C=C/O[C@@]2(C)Oc3c(C)c(O)c4c(O)c(c(/C=N/N5CCN(C)CC5)c(O)c4c3C2=O)NC(=O)/C(C)=C\C=C\[C@H](C)[C@H](O)[C@@H](C)[C@@H](O)[C@@H](C)[C@H](OC(C)=O)[C@@H]1C` [RIFAMPIN]: the MIC in data set [15] was 0.02 µg/mL (≈ 0.0243 µM).

Regarding `CC[C@@H](CO)NCCN[C@@H](CC)CO` [ETHAMBUTOL], 3.12 µg/mL (≈ 15.3 µM) was the least that counted as inhibitory in data set [15] (MIC).

A word on the IC50: it is the concentration at which inhibition is half-maximal. Higher therefore signals lower potency. Turning to `CN(CCc1ccccc1)Cc1c(CC2CCCCC2)[nH]c2ccnc(Cl)c12`, the “diameter of the inhibition zone (DIZ)” value in data set [1], in data set [2], in data set [3], in data set [8], in data set [13] and in data set [14] was “inactive” each time. Further, the MIC came to 9 µg/mL (≈ 22.7 µM) in [4]; 8 µg/mL (≈ 20.2 µM) in [7]; 6.25 µg/mL (≈ 15.8 µM) in data set [15]; 10 µg/mL (≈ 25.3 µM) in [9]; 10 µg/mL (≈ 25.3 µM) in [12]. For the same compound, the “diameter of the inhibition zone (DIZ)” value in data set [5], in data set [6], in [10] and in [11] was 32 mm each time. Also, the selectivity ratio in data set [16] was > 16. Further, the concentration for half-maximal inhibition (IC50) in data set [17] was > 50 µg/mL. Also, the inhibition at 72 h, 50 ug/ml in data set [18] was determined as 19.1%.

In the case of `Clc1nccc2[nH]c(CC3CCCCC3)c(CN3CCOCC3)c12`, the “diameter of the inhibition zone (DIZ)” value in data set [1], in [2], in [3], in data set [8], in data set [13] and in data set [14] was “inactive” throughout. Moreover, the minimal inhibitory concentration (MIC) in data set [4] amounted to 40 µg/mL (≈ 115 µM); in data set [7], 40 µg/mL (≈ 115 µM); in data set [15], 25 µg/mL (≈ 71.9 µM); in data set [9], 30 µg/mL (≈ 86.2 µM); in data set [12], 35 µg/mL (≈ 101 µM). Also, the “diameter of the inhibition zone (DIZ)” value in data set [5], in data set [6], in data set [10] and in data set [11] was 20 mm in each case. Also, the selectivity ratio in data set [16] was in the range of 1 to 2. Moreover, the IC50 in data set [17] is > 50 µg/mL. Moreover, in data set [18], the inhibition at 72 h, 50 ug/ml was determined as 21.2%.

Regarding `OCCN1CCN(Cc2c(-c3ccccc3)[nH]c3ccnc(Cl)c23)CC1`, the “diameter of the inhibition zone (DIZ)” value in [1], in [2], in [3], in data set [8], in data set [13] and in [14] was “inactive” in each case. Also, the minimal inhibitory concentration (MIC) is > 50 µg/mL in [4]; > 50 µg/mL in [7]; > 25 µg/mL in data set [15]; > 50 µg/mL in [9]; > 50 µg/mL in data set [12]. The “diameter of the inhibition zone (DIZ)” value in data set [5], in [6], in data set [10] and in data set [11] was 10 mm throughout.
